In patent US20080014288A1, “Zinc-containing treatments for hyperphosphatemia” (priority 2004, published 2008):
Entries after “also recorded” stand apart in the source; their conditions may differ.

System: house male Sprague Dawley (SD) rats
Test: In vivo urinary phosphate excretion in rats fed test substance mixed in Purina 5002 diet
Parameters: species or system rat
Details: for % Urinary Phosphate Relative to that of Control Animals / Phosphate Excretion: Table 1; for Phosphate Excretion: urine collected on days 5 and 6; for amounts of urinary phosphate compared with control (in words): rats on zinc therapy vs control which did not go through the zinc therapy
Method: House male Sprague Dawley (SD) rats were used for the experiments.
To establish baseline phosphorus excretion, the rats were placed in metabolic cages for 48 hours. Their urine was collected and its phosphorus content analyzed with a Hitachi analyzer to determine phosphorus excretion in mg/day. Any rats with outlying values were excluded; and the remainder of the rats was distributed into groups.
Cellulose at 0.5% by weight was used as a negative control. For each rat, 200 g of diet was prepared.
Each rat was weighed and placed on the standard diet. After 4 days the standard diet was replaced with the treatment diet (or control diet for the control group). On days 5 and 6, urine samples from the rats at 24 hours (±30 minutes) were collected and analyzed. The test rats were again weighed, and any weight loss or gain was calculated. Any remaining food was also weighed to calculate the amount of food consumed per day. A change in phosphorus excretion relative to baseline and cellulose negative control was calculated using Excel program.
A change in phosphorus excretion relative to baseline and cellulose negative control was calculated using Excel program.

[1] = 0.5% of diet by weight in Purina 5002, cellulose 0.5% negative control
[2] = 0.5% of diet by weight in Purina 5002

| Structure (SMILES) | % Urinary Phosphate Relative to that of Control Animals [1] [%] | Phosphate Excretion [2] [mg/day] | amounts of urinary phosphate compared with control (in words) | % Urinary Phosphate Relative to that of Control Animals (0.25% of diet by weight in Purina 5002, cellulose negative control) [%] | Phosphate Excretion (0.25% of diet by weight in Purina 5002) [mg/day] | amounts of urinary phosphate compared with control (in words) (listed as zinc acetate dihydrate) | amounts of urinary phosphate compared with control (in words) (monohydrate) | amounts of urinary phosphate compared with control (in words) (citrate dihydrate) |
| --- | --- | --- | --- | --- | --- | --- | --- | --- |
| [Cl-].[Cl-].[Zn+2] [Zinc chloride] | 50.6 | 8.8 | much lower; also recorded: substantially reduce |  |  |  |  |  |
| [O-2].[Zn+2] [zinc oxide, nanopowder, zinc oxide] |  |  |  | 50.7 | 9.7 |  |  |  |
| O=C([O-])C(=O)[O-].[Zn+2] [Zinc Oxalate] | 78.0 | 16.2 | much lower |  |  |  |  |  |
| CC(=O)[O-].CC(=O)[O-].O.O.[Zn+2] [Zinc acetate dehydrate] | 56.7 | 9.4 | much lower |  |  | substantially reduce |  |  |
| NCC(=O)[O-].NCC(=O)[O-].O.[Zn+2] [Zinc glycinate monohydrate] | 79.7 | 15.5 |  |  |  |  | much lower; also recorded: substantially reduce |  |
| O.O.O=C([O-])CC(O)(CC(=O)[O-])C(=O)[O-].O=C([O-])CC(O)(CC(=O)[O-])C(=O)[O-].[Zn+2].[Zn+2].[Zn+2] [Zinc citrate dihydrate] | 70.8 | 12 |  |  |  |  |  | much lower; also recorded: substantially reduce |
| [O]=[Zn] [Zinc oxide] | 18.4 | 3.2 | much lower; also recorded: substantially reduce |  |  |  |  |  |
| O=C[O-].O=C[O-].[Zn+2] [Zinc Formate] | 48.5 | 10.1 | much lower |  |  |  |  |  |
